# Assay results reported in patent US20230145643A1, “AGENTS FOR USE IN THE THERAPEUTIC OR PROPHYLACTIC TREATMENT OF RETINAL PIGMENT EPITHELIUM ASSOCIATED DISEASES” (priority 2020, published 2023).
# “And” between values parts separate entries of the source, which are not always exact repeats. Equal values may be shown once. Read-outs that look alike come from different tables or passages of the source.
# Columns and labels:
# guinea pig eyes = assay: Toxicity test of intravitreally administered amphiregulin (guinea pigs); type: in vivo
# Protocol: Methods and Material: Two to three-week old guinea pigs were divided into four groups:
# animals that received an intravitreal administration of amphiregulin (dose: 10 ng in 5 μl) into one eye and an intravitreal administration of vehicle into the contralateral eye (n=4),
# animals that received an intravitreal administration of amphiregulin (dose: 10 ng in 5 μl) into both eyes (n=4),
# an animal that received intravitreal administration of amphiregulin (dose: 10 ng in 5 μl) into one eye with the contralateral eye left untreated (n=1), and
# animals with both eyes left intact (n=2).
# All animals were treated in accordance with the ARVO (association for Research in Vision and Ophthalmology) Statement for the Use of Animals in Ophthalmic and Vision Research and the EC Directive 86/609/EEC for animal experiments. The animals were housed at a constant temperature (22±1° C.) and in a light-controlled environment (lights on from 7 am to 7 pm) with ad libitum access to food and water.
# All animals with injections received two intravitreal injections at an interval of ten days.
# At each time point, the eyes were inspected for signs of toxicity. Ten days after the second injection, the animals were sacrificed by an overdose of anesthetics. Ocular biometry was performed at baseline, prior to each injection, and prior to the sacrifice of animals. The sonographic ocular biometry was performed using Aviso, The Ultrasound Platform (Quantel Medical, France) under general anesthesia, on the follow-up days 15, 25, 35 and prior the sacrifice on day 45.
# After the sacrifice, the eyes of the animals were removed, post-fixed overnight in 4% paraformaldehyde, and embedded in optimal cutting temperature compound, cryosectioned and immunostained against glial activation marker (glial fibrillary acidic protein), microglial cell marker (lba-1), native guinea pig amphiregulin, and injected amphiregulin; or they were embedded in paraffin, sectioned and stained with hematoxylin and eosin for general histologic examination and histomorphometric retinal thickness measurements. In addition, the tissue was stained for apoptotic cell death detection applying the TUNEL method.
# bovine RPE cell [1] = details: bovine RPE cells after incubation with growth factor; cited from earlier work
# bovine RPE cell [2] = details: bovine RPE cells; cited from earlier work
# ARPE-19 cell line [3] = assay: RPE cell migration (scratch assay); type: cell-based, human; details: dose-dependent; EGF 0.1, 10, 100 μg/L; EGF antibody 0.01, 1.0, 10 mg/L; PBS control
# Protocol: (§1) Materials and Methods: The human ARPE-19 cell line was cultured in a standardized culture medium and incubated at 37° C. under 5% CO2. […] We examined the RPE cell proliferation using of a scanning spectrophotometer. In a second step, we examined the cell migration by a scratch assay.
# [4] = tested on: eyes of AMD patients (geographic atrophy); assay: Series of seven AMD patients treated with intravitreal EGF; type: in vivo, human
# Description: A series of seven patients were consecutively treated. […] The patients underwent weekly to two-weekly ophthalmological follow-up examinations. Three patients (patients #1, 2, and 3) received a repeated intravitreal injection after an interval of three to four weeks.
# RPE D407 cells = details: through both PI3K and ERK/MAPK pathways; cited from earlier work
# EGFR = EGFR signaling via the PI3K/Akt pathway in RPE culture; type: cell-based; details: addition of EGF
# ARPE-19 cell line [5] = assay: RPE cell proliferation (scanning spectrophotometer); type: cell-based, human; details: dose-dependent; EGF 0.1, 10, 100 μg/L; EGF antibody 0.01, 1.0, 10 mg/L; PBS control
# Protocol: as §1
# adult rabbits' eyes = assay: Toxicity test of intravitreally administered EGF (rabbits); type: in vivo, rabbit; details: for Intraocular pressure (IOP): injected right eye (OD), 100 ng EGF intravitreal
# Protocol: The injections were performed in the upper right quadrant of the eyes in a distance of 3-4 mm from the limbus. At baseline of the study, and at specific dates after the injection the animals were examined using photography of the external eye and anterior and posterior segment of the eye, tonometry, optical coherence tomography (OCT) of the posterior fundus, and fundus photography. Four weeks after a third injection, the animals were sacrificed and the globes were histomorphometrically examined.
# After sacrificing the animals, the eyes were enucleated, immediately fixed in a solution of 1% glutaraldehyde and 4% formaldehyde, and kept in that solution for seven days at room temperature. The sagittal, vertical and horizontal globe diameter were subsequently measured. A central segment with a thickness of about 8 mm and running through the optic nerve head and the pupil was cut out of the fixed globes, dehydrated in alcohol, imbedded in paraffin, sectioned for light microscopy with a slide thickness of 4-6 μm, and stained with hematoxylin eosin.
# The cell number in the three retinal layers containing cell nuclei was counted. The slides for apoptotic cell death were additionally stained using the TUNEL (terminal deoxynucleotidyl transferase dUTP nick end labeling) technique.
# [6] = tested on: eye of patient with geographic atrophy; type: in vivo, human; details: for foveolar zone thickness upon optical coherence tomography: 69 μm at baseline
# Description: Optical coherence tomography images of the fundus signs were unchanged. • On the 7th day after the injection, the eye appeared to be untouched, the conjunctival injection had subsided. Visual acuity had improved from 0.03 before the injection to 0.1. […] Upon optical coherence tomography, the foveolar zone increased in thickness from 69 μm at baseline to 71 μm at seven days after the injection, and to 73 μm two weeks later (FIGS. 3a, b).
# [7] = tested on: EGF-EGFR-MAPK signal transduction pathway; details: human RPE cells in culture; concentration-dependent manner; cited from earlier work
# [8] = injected eyes vs eyes injected with PBS or untouched eyes
# [9] = 0.75 μg EGF intravitreal, one line per patient (1-7)
# [10] = after the repeated intravitreal injections
substance,measurement,setting,value
Amphiregulin,animal weight,"guinea pig eyes; four groups, 10 ng in 5 μl intravitreal, two injections at ten days interval",did not differ in their weight at any time point analyzed
same,TUNEL positive cell numbers,guinea pig eyes; [8],No significant increase
same,microglial infiltration,guinea pig eyes; [8],No significant increase
same,retinal gliosis,guinea pig eyes; [8],No significant increase
same,intraocular inflammatory or toxic effect,"guinea pig eyes; repeatedly intravitreally applied, guinea pigs (summary)",did not result in an intraocular inflammatory or toxic effect
acidic fibroblast growth factor [aFGF],RPE cell migration,bovine RPE cell [1],significantly enhanced
same,RPE cell DNA synthesis,bovine RPE cell [2],stimulated
basic fibroblast growth factor [bFGF],RPE cell migration,bovine RPE cell [1],significantly enhanced
same,RPE cell DNA synthesis,bovine RPE cell [2],stimulated
epidermal growth factor [EGF],ARPE-19 cell migration,ARPE-19 cell line [3],increased with higher concentrations
same,RPE cell migration,bovine RPE cell [1],significantly enhanced
same,Visual Acuity (Decimal) at last examination,"[4]; 0.75 μg EGF in 50 μl intravitreal, one line per patient (1-7), follow-up one to seven weeks",0.09 and 0.03 and 0.06 and 0.1 (2×) and 0.08 and 0.05
same,Intraocular Pressure,[4]; [9],17 mmHg and 16 mmHg
same,Quality of vision,[4]; [9],Improved
same,Improvement in ETDRS letters,"[4]; 0.75 μg EGF intravitreal, one line per patient (1-7), last examination vs before injection",3 ETDRS letters and 8 ETDRS letters and 9 ETDRS letters and 26 ETDRS letters and 6 ETDRS letters and 11 ETDRS letters and 0 ETDRS letters
same,side effects,[4]; besides conjunctival vessel dilatation or circumscribed subconjunctival hemorrhage at the site of the injection,no other side effects were noted
same,"intraocular pressure after injection, upper bound in all eyes",[4]; none of the eyes beyond this value,≤ 21 mmHg
same,patients with improvement in measured visual acuity,"[4]; out of seven patients, follow-up one week to seven weeks",six showed an improvement in their measured visual acuity
same,visual function and macular morphology,"[4]; patients with geographic atrophy, intravitreal application (summary of Examples 1 and 2)",improvement in visual function and macular morphology
same,intraocular tolerability,"[4]; patients, intravitreal application (summary statement)",well tolerated intraocularly without signs of intraocular inflammation or toxicity
same,cells in the anterior chamber fluid or vitreous cavity (slit lamp-based biomicroscopy),[4]; seven patients,In none of the eyes
same,central visual field (perimetry),[4]; seven patients,also improved
same,hemorrhages or other newly developed pathologies in the retina,[4]; seven patients,none of the eyes revealed hemorrhages or other newly developed pathologies in the retina
same,"signs of intraocular inflammation, lens opacification, optic media clarity, intraocular pressure change",[4]; seven patients,"no signs of intraocular inflammation, lens opacification, changes in the clarity of the optic media, or any significant change in intraocular pressure"
same,"thickness of the tissue in the foveolar region (fundus examination, OCT)",[4]; seven patients,tendency of an increase
same,survival of RPE D407 cells,RPE D407 cells,stimulated survival of RPE D407 cells
same,EGFR signaling via the PI3K/Akt pathway,EGFR,caused an increase
same,ARPE-19 cell proliferation,ARPE-19 cell line [5],increased with higher concentrations
same,change in intraocular pressure (IOP) as measured by tonometry,adult rabbits' eyes; [10],No significant change
same,change in retinal thickness as measured by OCT,adult rabbits' eyes; [10],No significant change
same,Intraocular pressure (IOP),adult rabbits' eyes; 5 Dec. 2018,6 mmHg
same,Intraocular pressure (IOP),adult rabbits' eyes; 29 Dec. 2018,8 mmHg
same,cell count of the retinal layers (histomorphometry),"adult rabbits' eyes; injected vs contralateral eyes, posterior pole, midpoint, equator, ora serrata region, all P-values>0.20",did not differ significantly
same,apoptotic cells in TUNEL staining,adult rabbits' eyes; rabbit eyes,"neither in the right eyes or in the left eyes, apoptotic cells were detected"
same,"intravital examinations of the external eye and the anterior segment (toxicity, cataract)","adult rabbits' eyes; rabbits, repeated intravitreal injections",did not reveal any sign of toxicity or development of cataract
same,intraocular inflammatory or toxic effect,"adult rabbits' eyes; repeatedly intravitreally applied, rabbits (summary)",did not result in an intraocular inflammatory or toxic effect
same,subjective vision,[6]; 7th day after the injection,marked improvement in vision
same,Visual acuity,"[6]; 7th day after the injection, 0.03 before the injection",0.1
same,light differential sensitivity in the central zone (computer perimetry),"[6]; after injection, central four measurement points, 11.3 dB before",24.8 dB per measurement point
same,Intraocular Pressure,"[6]; human, in vivo",unchanged within normal limits
same,conjunctival injection,"[6]; human, in vivo",had subsided
same,finding on the surface of the eye,"[6]; human, in vivo",mixed moderate conjunctival injection
same,pathological reactions of the anterior segment of the eye,"[6]; human, in vivo",no pathological reactions
same,foveolar zone thickness upon optical coherence tomography,[6]; seven days after the injection,71 μm
same,central visual acuity,[6]; third day after injection,unchanged
same,optical coherence tomography images of the fundus,[6]; third day after injection,unchanged
same,peripheral vision,[6]; third day after injection,remained unchanged
same,subjective vision (metamorphopsias),[6]; third day after injection,the distortions and curvatures of objects (metamorphopsias) disappeared
same,foveolar zone thickness upon optical coherence tomography,[6]; two weeks later,73 μm
same,EGF-EGFR-MAPK signal transduction pathway induction,[7],induces the EGF-EGFR-MAPK (mitogen-activated protein kinase) signal transduction pathway
same,RPE cell DNA synthesis,bovine RPE cell [2],stimulated
insulin-like growth factor-1 [IGF-1],RPE cell migration,bovine RPE cell [1],significantly enhanced
platelet-derived growth factor [PDGF],RPE cell migration,bovine RPE cell [1],significantly enhanced
same,RPE cell DNA synthesis,bovine RPE cell [2],stimulated
